Results published in PMC10716780, “The multistep oxidation of cholesterol to pregnenolone by human cytochrome P450 11A1 is highly processive” (The Journal of Biological Chemistry, 2023).
Where “and” joins values, the source holds several entries; their conditions need not be identical. Equal values may be shown once.

Biological target: T1, human P450 11A1 (Homo sapiens, UniProt P05108)
T1 sequence (P05108 41-521 limits assumed): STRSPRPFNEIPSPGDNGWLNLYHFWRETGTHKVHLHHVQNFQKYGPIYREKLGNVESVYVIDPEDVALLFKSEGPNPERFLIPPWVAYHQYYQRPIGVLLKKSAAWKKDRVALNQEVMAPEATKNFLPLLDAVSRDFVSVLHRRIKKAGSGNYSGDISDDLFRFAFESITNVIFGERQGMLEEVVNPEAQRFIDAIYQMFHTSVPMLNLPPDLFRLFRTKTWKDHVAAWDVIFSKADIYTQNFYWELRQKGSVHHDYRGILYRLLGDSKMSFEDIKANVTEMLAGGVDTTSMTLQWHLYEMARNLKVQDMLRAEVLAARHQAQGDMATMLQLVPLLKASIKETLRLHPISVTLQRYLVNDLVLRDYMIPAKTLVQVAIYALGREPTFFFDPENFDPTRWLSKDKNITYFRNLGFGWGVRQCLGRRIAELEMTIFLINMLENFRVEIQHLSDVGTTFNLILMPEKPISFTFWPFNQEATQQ
T1 sequence (P00257 59-186 partner): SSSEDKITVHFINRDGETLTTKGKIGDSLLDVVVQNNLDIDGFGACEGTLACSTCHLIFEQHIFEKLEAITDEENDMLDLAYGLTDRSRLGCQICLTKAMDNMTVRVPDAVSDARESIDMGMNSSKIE
Assay: Steady-state conversion of sterols to pregnenolone by reconstituted P450 11A1 (UPLC-MS of dansyl hydrazone)
Format: biochemical
Parameters: M A S T R S P R P F N E I P S P G D N; Met-Ala (N-terminal start residues in place of the transit peptide and Ile40) (N); made in house; host or cells: E. coli (P450 11A1 in C41(DE3); Adx and AdR in E. coli)
Conditions: for Km / kcat / kcat (conversion of sterol to pregnenolone): 0.25 μM P450, 0.5 μM AdR, 10 μM Adx, 37 °C; for rate of pregnenolone formation: duplicate, raw data of Fig. 5
Description: Accordingly, all steady-state assays were done, unless otherwise noted, with a P450 11A1:Adx:AdR molar ratio of 1:40:2 (Fig. 2, that is, 0.25 μM P450, 10 μM Adx, and 0.5 μM AdR), in the absence of added lipid or detergent, and with the addition of sterol substrates in HPCD (stock 45% w/v).
As mentioned in the Introduction, many types of assays have been used to monitor the steady-state conversion of cholesterol to pregnenolone ([12], [14], [15], [16], [17], [18], [19], [20], [21]). A reliable and sensitive method was required that could be used for presteady-state reactions and was not reliant on the presence of isotope in cholesterol, in that, we also worked with 22R-OH cholesterol and 20R,22R-(OH)2 cholesterol as substrates. We utilized a method based on our work with P450 17A1 ([41], [42]), in which we derivatized the product pregnenolone as its dansyl hydrazone and separated it by ultra-performance liquid chromatography (UPLC) with detection by positive ion electrospray mass spectrometry (MS). The steroid dehydroepiandosterone (DHEA) was used an internal standard.
Reactions were performed by reconstituting P450 (0.25 μM), AdR (0.5 μM), and Adx (10 μM) on ice for 10 min prior to dilution in potassium Hepes buffer (50 mM, pH 7.4) and H2O and the addition of substrate (sterol, in HPCD (45% w/v)). Sterol dilutions were performed in HPCD to ensure that the HPCD composition was equal throughout all incubations (final 4.5% w/v). The reaction mixture was split between vials (425 μl in each), and reactions were preincubated (37 °C, 5 min) prior to initiation (75 μl) with an NADPH-generating system (0.5 mM NADP^+, 10 mM glucose 6-phosphate, and 2 μg ml^−1 glucose 6-phosphate dehydrogenase) ([61]). Reactions (5 min) were terminated by extraction into CH2Cl2 (2 ml) and transferred to an ice bath. After the experiment was complete, the quenched reactions were subjected to centrifugation (10^3g, 5 min, 23 °C) to separate layers, the organic (bottom) layer of each sample was removed (1.6 ml) to fresh glass vials, and the samples were brought to dryness under a stream of nitrogen.
Steroid extracts were subsequently derivatized with dansylhydrazine and analyzed as described previously ([42]). Briefly, the dried residue was resuspended (200 μl) in C2H5OH (fortified with 0.1% v/v CF3CO2H, as the derivatization reaction is H^+-catalyzed) and mixed with a vortex device. Samples were transferred to 1.5 ml amber glass vials, solutions of dansylhydrazine (10 mM) and DHEA, 10 μM, as internal standard) were added, and vials were capped, mixed with a vortex device, and incubated in the dark overnight (∼16 h, 23 °C). The derivatization reaction was quenched with acetone […], briefly incubated in the dark (∼30 min, 23 °C), and was then neutralized with base (250 μl of 0.5 M NaOH) and extracted into CH2Cl2 (1 ml). The samples were mixed with a vortex device and the organic (bottom) layer was removed (0.8 ml) to clean amber vials. Solvent was again removed under nitrogen, and the dried residue was dissolved in a mobile phase (100 μl) of 0.1% CF3CO2H in aqueous CH3CN (50%, v/v) for analysis.
Samples were injected (10 μl, held at 25 °C) on a 2.1 mm × 50 mm (1.7 μm) Acquity BEH octadecylsilane (C18) column (held at 40 °C) using a Waters Acquity UPLC with a flow rate of 0.2 ml min^−1 and a gradient mobile phase of (A) 0.1% aqueous HCO2H and (B) CH3CN as follows (all %B, v/v): 0 min, 40%; 0.5 min, 40%; 8 min, 100%; 8.5 min, 95%; 9 min, 100%; 9.1 min, 40%; and 10 min, 40%.

CC(C)CC[C@@H](O)[C@](C)(O)[C@H]1CC[C@H]2[C@@H]3CC=C4C[C@@H](O)CC[C@]4(C)[C@H]3CC[C@]12C [20R,22R-(OH)2 Chol, (20R,22R)-Cholest-5-ene-3β,20,22-triol]
Km: 36 ± 7 µM | kcat: 0.233 ± 0.017 s⁻¹ | kcat (conversion of sterol to pregnenolone): 0.23 ± 0.02 s⁻¹ | kcat and kcat/Km relative to starting substrate cholesterol (greater) (steady state): ~2 fold | rate of pregnenolone formation (substrate 5 µM, listed as 20R,22R-(OH)2 Cholesterol): 2.46 min⁻¹ and 2.24 min⁻¹ | rate of pregnenolone formation (substrate 7.5 µM, listed as 20R,22R-(OH)2 Cholesterol): 2.57 min⁻¹ and 2.85 min⁻¹ | rate of pregnenolone formation (substrate 15 µM, listed as 20R,22R-(OH)2 Cholesterol): 3.83 min⁻¹ and 4.18 min⁻¹ | rate of pregnenolone formation (substrate 20 µM, listed as 20R,22R-(OH)2 Cholesterol): 4.26 min⁻¹ and 5.83 min⁻¹ | rate of pregnenolone formation (substrate 30 µM, listed as 20R,22R-(OH)2 Cholesterol): 5.47 min⁻¹ and 6.23 min⁻¹ | rate of pregnenolone formation (substrate 40 µM, listed as 20R,22R-(OH)2 Cholesterol): 7.20 min⁻¹ and 6.21 min⁻¹ | rate of pregnenolone formation (substrate 50 µM, listed as 20R,22R-(OH)2 Cholesterol): 6.51 min⁻¹ and 8.53 min⁻¹ | rate of pregnenolone formation (substrate 75 µM, listed as 20R,22R-(OH)2 Cholesterol): 7.45 min⁻¹ and 10.26 min⁻¹ | rate of pregnenolone formation (substrate 100 µM, listed as 20R,22R-(OH)2 Cholesterol): 12.01 min⁻¹ and 10.27 min⁻¹ | rate of pregnenolone formation (substrate 150 µM, listed as 20R,22R-(OH)2 Cholesterol): 9.70 min⁻¹ and 11.61 min⁻¹

CC(C)CC[C@H](O)[C@](C)(O)[C@H]1CC[C@H]2[C@@H]3CC=C4C[C@@H](O)CC[C@]4(C)[C@H]3CC[C@]12C [20R,22S-(OH)2 Chol, (20R,22S)-Cholest-5-ene 3β,20,22-triol]
Km: 15 ± 2 µM | kcat: 0.0833 ± 0.0033 s⁻¹ | kcat (conversion of sterol to pregnenolone): 0.083 ± 0.003 s⁻¹ | kcat lower than native diol 20R,22R-(OH)2 cholesterol (steady state): ~3 fold | rate of pregnenolone formation (substrate 7.5 µM, listed as 20R,22S-(OH)2 Cholesterol): 2.07 min⁻¹ and 1.68 min⁻¹ | rate of pregnenolone formation (substrate 15 µM, listed as 20R,22S-(OH)2 Cholesterol): 1.97 min⁻¹ and 1.99 min⁻¹ | rate of pregnenolone formation (substrate 20 µM, listed as 20R,22S-(OH)2 Cholesterol): 2.93 min⁻¹ and 2.88 min⁻¹ | rate of pregnenolone formation (substrate 30 µM, listed as 20R,22S-(OH)2 Cholesterol): 3.59 min⁻¹ and 3.11 min⁻¹ | rate of pregnenolone formation (substrate 40 µM, listed as 20R,22S-(OH)2 Cholesterol): 3.90 min⁻¹ and 4.10 min⁻¹ | rate of pregnenolone formation (substrate 50 µM, listed as 20R,22S-(OH)2 Cholesterol): 3.70 min⁻¹ and 3.57 min⁻¹ | rate of pregnenolone formation (substrate 75 µM, listed as 20R,22S-(OH)2 Cholesterol): 4.16 min⁻¹ and 4.38 min⁻¹ | rate of pregnenolone formation (substrate 100 µM, listed as 20R,22S-(OH)2 Cholesterol): 4.14 min⁻¹ and 4.09 min⁻¹ | rate of pregnenolone formation (substrate 150 µM, listed as 20R,22S-(OH)2 Cholesterol): 4.64 min⁻¹ and 4.37 min⁻¹

CC(C)CC[C@@H](O)[C@@H](C)[C@H]1CC[C@H]2[C@@H]3CC=C4C[C@@H](O)CC[C@]4(C)[C@H]3CC[C@]12C [22R-OH Chol, 22R-hydroxycholesterol]
Km: 29 ± 3 µM | kcat: 0.152 ± 0.005 s⁻¹ | kcat (conversion of sterol to pregnenolone): 0.15 ± 0.01 s⁻¹ | rate of pregnenolone formation (substrate 2.5 µM, listed as 22R-OH Cholesterol): 1.34 min⁻¹ and 1.02 min⁻¹ | rate of pregnenolone formation (substrate 5 µM, listed as 22R-OH Cholesterol): 1.68 min⁻¹ and 1.48 min⁻¹ | rate of pregnenolone formation (substrate 7.5 µM, listed as 22R-OH Cholesterol): 1.94 min⁻¹ and 2.15 min⁻¹ | rate of pregnenolone formation (substrate 15 µM, listed as 22R-OH Cholesterol): 3.15 min⁻¹ and 3.07 min⁻¹ | rate of pregnenolone formation (substrate 20 µM, listed as 22R-OH Cholesterol): 3.29 min⁻¹ and 3.38 min⁻¹ | rate of pregnenolone formation (substrate 30 µM, listed as 22R-OH Cholesterol): 4.66 min⁻¹ and 5.17 min⁻¹ | rate of pregnenolone formation (substrate 40 µM): 5.08 min⁻¹ | rate of pregnenolone formation (substrate 50 µM, listed as 22R-OH Cholesterol): 5.23 min⁻¹ and 5.80 min⁻¹ | rate of pregnenolone formation (substrate 75 µM, listed as 22R-OH Cholesterol): 6.76 min⁻¹ and 6.27 min⁻¹ | rate of pregnenolone formation (substrate 100 µM, listed as 22R-OH Cholesterol): 7.41 min⁻¹ and 6.71 min⁻¹ | rate of pregnenolone formation (substrate 150 µM, listed as 22R-OH Cholesterol): 7.68 min⁻¹ and 8.05 min⁻¹

CC(C)CCC[C@@H](C)[C@H]1CC[C@H]2[C@@H]3CC=C4C[C@@H](O)CC[C@]4(C)[C@H]3CC[C@]12C [Cholesterol]
Km: 38 ± 6 µM | kcat: 0.115 ± 0.0083 s⁻¹ | kcat (conversion of sterol to pregnenolone): 0.12 ± 0.01 s⁻¹ | kcat (conversion of sterol to pregnenolone) (listed as cholesterol): 0.12 s⁻¹ | kcat for conversion to pregnenolone (40-fold excess Adx): 6.9 nmol product formed min^−1 (nmol P450)^−1 | rate of pregnenolone formation (substrate 7.5 µM): 1.32 min⁻¹ and 1.18 min⁻¹ | rate of pregnenolone formation (substrate 15 µM): 1.88 min⁻¹ and 1.72 min⁻¹ | rate of pregnenolone formation (substrate 20 µM): 2.38 min⁻¹ and 2.20 min⁻¹ | rate of pregnenolone formation (substrate 30 µM): 2.47 min⁻¹ and 2.46 min⁻¹ | rate of pregnenolone formation (substrate 40 µM): 3.96 min⁻¹ and 3.88 min⁻¹ | rate of pregnenolone formation (substrate 50 µM): 4.06 min⁻¹ and 4.00 min⁻¹ | rate of pregnenolone formation (substrate 75 µM): 4.99 min⁻¹ and 4.93 min⁻¹ | rate of pregnenolone formation (substrate 100 µM): 5.93 min⁻¹ and 4.92 min⁻¹ | rate of pregnenolone formation (substrate 150 µM): 4.83 min⁻¹ and 5.08 min⁻¹
